Laboratory results: patent publication US6576624B1, “Use of dopamine receptor antagonists in palliative tumor therapy” (Zentaris AG, priority 1996, dated 2003)
Like-named read-outs stand apart in the source and are kept apart here. Marks after values point to notes of the source that are not given here.

Experiments:
[1] = for Changes of body weight, Control AUC, day 7 / Changes of body weight, D-18506(4 × 68.1 mg/kg p.o.) AUC, day 7 / Changes of body weight, D-21266(4 × 46.4 mg/kg p.o.) AUC, day 7: AUC to day 7; for Changes of body weight, Control AUC, day 7 / Changes of body weight, Control AUC, day 11: asterisks = comparison with control group; for Changes of body weight, D-18506(4 × 68.1 mg/kg p.o.) AUC, day 7 / Changes of body weight, D-18506(4 × 68.1 mg/kg p.o.) AUC, day 11: compared with D-18506 alone (D-18506 4 × 68.1 mg/kg p.o. alone); for Changes of body weight, D-18506(4 × 68.1 mg/kg p.o.) AUC, day 7 / Changes of body weight, D-18506(4 × 68.1 mg/kg p.o.) AUC, day 11 / Changes of body weight, D-21266(4 × 46.4 mg/kg p.o.) AUC, day 7 / Changes of body weight, D-21266(4 × 46.4 mg/kg p.o.) AUC, day 11: same i.p. doses as c1; for Changes of body weight, Control AUC, day 11 / Changes of body weight, D-18506(4 × 68.1 mg/kg p.o.) AUC, day 11 / Changes of body weight, D-21266(4 × 46.4 mg/kg p.o.) AUC, day 11: AUC to day 11; for Changes of body weight, D-21266(4 × 46.4 mg/kg p.o.) AUC, day 7 / Changes of body weight, D-21266(4 × 46.4 mg/kg p.o.) AUC, day 11: compared with D-21266 alone (D-21266 4 × 46.4 mg/kg p.o. alone); for Effect on body weight development of animals treated with octadecyl(1,1-dimethylpiperidinio-4-yl)phosphate: simultaneous administration with D-21266, normal rats, FIGS. 7 and 8, Table 2
From the text: Comparative studies with respect to body weight changes in healthy and tumor-bearing rats were investigated after administration of miltefosine or octadecyl(1,1-dimethylpiperidinio-4-yl)phosphate alone and in combination with various appetite-stimulating compounds.

[2] = cancer patients; Eur. J. Cancer 29A, 208-209, 1993; cited from earlier work
[3] = test system: DMBA-induced breast tumor; assay: Anti-tumor action on DMBA-induced breast tumor of rats; type: in vivo, rat; conditions: rats with DMBA-induced breast tumor; FIGS. 11-12
[4] = Table 1, rat, i.p. mg/kg: Domperidone 0.1, Pimozide 0.2, Metoclopramide 0.2, Cyproheptadine 2.5, combinations with D-18506 4 × 68.1 mg/kg p.o.
[5] = Table 2, rat, i.p. mg/kg: Pimozide 0.1, Cyproheptadine 2.5, Metoclopramide 0.2, Domperidone 0.1, combinations with D-21266 4 × 46.4 mg/kg p.o.

SMILES | Changes of body weight, Control AUC, day 7 [1, 4] | Changes of body weight, D-18506(4 × 68.1 mg/kg p.o.) AUC, day 7 ([1]; Table 1, rat) | Changes of body weight, Control AUC, day 11 [1, 4] | Changes of body weight, D-18506(4 × 68.1 mg/kg p.o.) AUC, day 11 ([1]; Table 1, rat) | Changes of body weight, Control AUC, day 7 [1, 5] | Changes of body weight, D-21266(4 × 46.4 mg/kg p.o.) AUC, day 7 ([1]; Table 2, rat) | Changes of body weight, Control AUC, day 11 [1, 5] | Changes of body weight, D-21266(4 × 46.4 mg/kg p.o.) AUC, day 11 ([1]; Table 2, rat) | Effect on body weight development of animals treated with octadecyl(1,1-dimethylpiperidinio-4-yl)phosphate [1] | Side effects in patients treated with miltefosine [2] | Body weight change on administration of miltefosine alone ([1]; rat, in vivo) | Body weight development after octadecyl(1,1-dimethylpiperidinio-4-yl)phosphate alone ([1]; rat, in vivo) | Body weight development, alone and in combination with octadecyl(1,1-dimethylpiperidinio-4-yl)phosphate ([1]; tumor-bearing rats, FIGS. 9-10) | Effect on anti-tumor action of octadecyl(1,1-dimethylpiperidinio-4-yl)phosphate [3] | Effect on the loss of weight caused by miltefosine ([1]; simultaneous administration with miltefosine, healthy and tumor-bearing rats, domperidone or pimozide 5×0.1 mg/kg i.p.)
CN1CCC(=C2c3ccccc3C=Cc3ccccc32)CC1 [Cyproheptadine, cyproheptadine] | 0.8 | 0.8 | 15.5 | 15.5 | 1.5 | 1.5 | 20.6 | 20.6 | no significant effect |  |  |  |  |  | 
CCCCCCCCCCCCCCCCOP(=O)([O-])OCC[N+](C)(C)C [D-18506, miltefosine] |  | −17.9 |  | −23.5 |  |  |  |  |  | marked loss of body weight | clear loss of weight |  |  |  | 
CCCCCCCCCCCCCCCCCCOP(=O)([O-])OC1CC[N+](C)(C)CC1 [D-21266, octadecyl(1,1-dimethylpiperidinio-4-yl)phosphate] |  |  |  |  |  | 10.6 |  | 37.1 |  |  |  | increase in weight less than the control animals |  |  | 
O=c1[nH]c2ccccc2n1CCCN1CCC(n2c(=O)[nH]c3cc(Cl)ccc32)CC1 [Domperidone, domperidone] |  |  |  |  |  |  |  |  | more than compensated |  |  |  | increase the body weight development | without affecting the anti-tumor action | 
CCN(CC)CCNC(=O)c1cc(Cl)c(N)cc1OC [Metoclopramide, metoclopramide] | 11.5 | 11.5** | 30.5 | 30.5** | 19.2 | 19.2 | 49.4 | 49.4 | no significant effect |  |  |  |  |  | does not lead to any positive effect
O=c1[nH]c2ccccc2n1C1CCN(CCCC(c2ccc(F)cc2)c2ccc(F)cc2)CC1 [Pimozide, pimozide] | 30.4** | 30.4** | 69.8** | 69.8** | 31.2** | 31.2** | 67.5** | 67.5** |  |  |  |  |  |  | 
